Tests used:
[1] = test system: adjuvant-induced arthritis in male Lewis rats; test: adjuvant-induced arthritis test in rats; assay type: in vivo, rat; settings: change day 28 minus day 21; 30 mg/kg by intubation each day for seven days; vehicle result in parenthesis
Experimental: As mentioned earlier, the compounds of formula (1) and pharmaceutically acceptable salts of compounds of formula (1) are useful in the treatment or prevention of inflammations and diseases where inflammation is the innate cause. For example, they can be used as anti-inflammatory agents in the treatment of inflammatory joint diseases, such as arthritis. To substantiate this assertion, representative compounds of formula (1) were tested for their inflammation-inhibiting properties in the adjuvant-induced arthritis test in rats as described in Int J Immunopharma, […], 12, 709-712.
A quantity of 0.1 ml of a 0.5% (weight/volume) suspension of heat-killed and dried mycobacterium butyricum in heavy mineral oil, containing 0.2% digitonin, is injected into the base of the tail of male Lewis rats (120-140 g). The animals are housed individually and receive feed and water ad libitum. The thus-induced arthritis is allowed to develop without treatment during 21 days. On day 21 the body weight of each animal is determined. At the same time, the volumes of the two hind paws of each animal are measured by immersing the paws in an aqueous plethysmograph up to the height of the lateral malleolus. Thereupon, the animals are divided into groups, each group comprising six animals of approximately the same average volumes of the hind paws. One group is administered suspending vehicle. The other groups are administered the micronized test compound suspended in an aqueous suspending vehicle [0.9% NaCl (w/v) containing 0.5% carboxymethyl cellulose (w/v), 0.86% benzyl alcohol (v/v) and 0.39% Tween 80 (v/v)]. The test compound in aqueous suspending vehicle (or vehicle alone) is administered to the animals by intubation each day over a period of seven days. The effect of the test compounds is monitored daily by measurement of the hind paw volumes and body weights. At the end of the treatment period (day 28), body weights and volumes of the hind paws are again determined. The changes over the treatment period are calculated. The change in paw volume or body weight equals the paw volume or body weight on day 28 minus paw volume or body weight on day 21.
The results determined for representative compounds of formula (1) in the test described hereinbefore are set forth in the following Table I. Therein, the results for vehicle is in parenthesis following the results for each tested compound at a dose level of 30 mg/kg in each test.

ovine COX-1 = target: T1, ovine COX-1 (Ovis aries, UniProt P05979); test: COX Activity Assay (Cayman), colorimetric, COX-1; assay type: biochemical; settings: at a level of 300 μM
T1 construct: purchased Cayman Chemicals
T1 sequence (P05979 25-600): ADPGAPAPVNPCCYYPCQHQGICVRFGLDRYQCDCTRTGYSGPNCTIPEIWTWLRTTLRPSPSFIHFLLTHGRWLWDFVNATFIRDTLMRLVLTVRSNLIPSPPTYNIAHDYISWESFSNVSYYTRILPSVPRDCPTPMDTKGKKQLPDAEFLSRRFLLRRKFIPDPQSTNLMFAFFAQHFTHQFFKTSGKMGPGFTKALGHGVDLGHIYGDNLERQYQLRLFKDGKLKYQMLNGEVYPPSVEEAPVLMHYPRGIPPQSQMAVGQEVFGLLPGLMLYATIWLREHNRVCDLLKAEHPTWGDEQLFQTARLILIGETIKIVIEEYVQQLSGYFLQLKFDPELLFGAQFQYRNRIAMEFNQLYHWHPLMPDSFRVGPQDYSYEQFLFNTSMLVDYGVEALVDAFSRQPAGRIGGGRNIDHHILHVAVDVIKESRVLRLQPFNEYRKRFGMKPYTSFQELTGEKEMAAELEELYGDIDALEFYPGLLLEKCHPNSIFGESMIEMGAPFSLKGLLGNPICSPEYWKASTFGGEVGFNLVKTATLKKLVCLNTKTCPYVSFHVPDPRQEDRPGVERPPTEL
Experimental: (§1) A representative compounds of formula (1a), was also tested for the effects on the activity of purified COX1, COX2, and LOX5 enzymes. In sharp contrast to the potent activity in the adjuvant-induced arthritis test in rats, the activity against the isolated arachidonic acid metabolizing enzymes was low.
(§2) COX activity was measured using an assay kit obtained from Cayman Chemicals in accord with the instruction manual of the manufacturer “COX Activity Assay, Catalog No. 760151, Colorimetric Assay for the Determination of COX Activity.” The enzyme activity was determined by the peroxidase activity of cyclooxygenases on arachidonic acid and monitored colorimetrically at 590 nm by the appearance of oxidized N,N,N′,N′-tetramethyl-p-phenylenediamine. Both ovine COX-1 and human recombinant COX-2 were obtained from Cayman Chemicals.

human recombinant COX-2 = target: T2, human recombinant COX-2 (Homo sapiens, UniProt P35354); test: COX Activity Assay (Cayman), colorimetric, COX-2; assay type: biochemical; settings: read-out: IC50 for COX2
T2 construct: purchased Cayman Chemicals
T2 sequence (P35354 18-604): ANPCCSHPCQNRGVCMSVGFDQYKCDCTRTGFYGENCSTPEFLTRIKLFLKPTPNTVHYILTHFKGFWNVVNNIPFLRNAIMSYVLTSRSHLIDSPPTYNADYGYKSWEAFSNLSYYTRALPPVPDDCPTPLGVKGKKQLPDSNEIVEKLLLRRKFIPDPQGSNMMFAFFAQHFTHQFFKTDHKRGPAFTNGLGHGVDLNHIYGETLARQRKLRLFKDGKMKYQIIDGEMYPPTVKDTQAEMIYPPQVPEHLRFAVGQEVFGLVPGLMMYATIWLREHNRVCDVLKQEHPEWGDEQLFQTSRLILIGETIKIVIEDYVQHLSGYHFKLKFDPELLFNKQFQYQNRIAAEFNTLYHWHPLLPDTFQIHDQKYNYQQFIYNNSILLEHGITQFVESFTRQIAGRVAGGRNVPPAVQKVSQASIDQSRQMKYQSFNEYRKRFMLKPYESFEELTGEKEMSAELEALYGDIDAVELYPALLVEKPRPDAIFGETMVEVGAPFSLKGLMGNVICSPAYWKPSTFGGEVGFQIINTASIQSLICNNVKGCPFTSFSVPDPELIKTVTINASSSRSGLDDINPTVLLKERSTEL
Experimental: as §1, §2

[2] = test system: purified potato 5-lipoxygenase; test: LOX Inhibitor Screening Assay Kit (Cayman), colorimetric; assay type: biochemical; settings: arachidonic acid as substrate
Experimental: A representative compounds of formula (1a), was also tested for the effects on the activity of purified COX1, COX2, and LOX5 enzymes. In sharp contrast to the potent activity in the adjuvant-induced arthritis test in rats, the activity against the isolated arachidonic acid metabolizing enzymes was low. LOX5 activity was also measured colorimetrically by the hydroperoxides generated from the incubation of purified potato 5-lipoxygenase (Cayman Chemical Item Number 60401) in the LOX Inhibitor Screening Assay Kit (Cayman Chemical Item Number 760700) using arachidonic acid as substrate and following the protocol provided by Cayman Chemical. The test substance A inhibited the enzyme at 300, 100, 30 μM at 89, 69, and 46%, respectively.

Row | SMILES | Body weight change (g) [1] | Left paw volume (mL) [1] | Right paw volume (mL) [1] | effect on COX1 (ovine COX-1) | IC50 (human recombinant COX-2) [µM] | LOX5 inhibition ([2]; 30 μM) [%] | LOX5 inhibition ([2]; 100 μM) [%] | LOX5 inhibition ([2]; 300 μM) [%]
1 | CNC(=O)c1cnc(OC)nc1-c1cc(C(C)(C)C)c(O)c(C(C)(C)C)c1 [C, 4-(3,5-di-tert-butyl-4-hydroxy-phenyl)-2-methoxy-pyrimidine-5-carboxylic acid methylamide] | 28 ± 2 (13) g | −0.65 ± 0.02 (0.09) mL | −0.61 ± 0.01 (0.08) mL |  |  |  |  | 
2 | CNC(=O)c1cnc(C)nc1-c1cc(C(C)(C)C)c(O)c(C(C)(C)C)c1 [Compound A, 4-(3,5-di-tert-butyl-4-hydroxy-phenyl)-2-methyl-pyrimidine-5-carboxylic acid methylamide] | 25 ± 3 (13) g | −0.88 ± 0.12 (0.09) mL | −0.99 ± 0.15 (0.08) mL | no effect | 60 | 46 | 69 | 89

Reference: patent publication US8580805B2, “Pyrimidine carboxamide derivatives” (priority 2010, dated 2013)
